Several values for one entry are separate records, joined by “and”; a condition that tells them apart may be missing. Equal values may be shown once. Toxic doses and inconclusive results are not listed.

The experiment has as its system P388 leukemia ip, CD2F1 mice, survival T/C. Kind of experiment: NCI In Vivo Anticancer Drug Screen. Data for tumor model P388 Leukemia (intraperitoneal) in CD2F1 (CDF1) mice. The following applies: endpoint: median survival time, higher = longer survival. The essentials:
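Mice carrying the transplanted tumor received test compound or vehicle. Survival was recorded in each group, and the value is the treated-group measurement divided by that of the vehicle-treated control group.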

The mark [1] stands for this setting: dose: 60.0 mg/kg/injection, schedule: Q01DX005 (ip), vehicle: saline with Tween-80.
The mark [2] stands for this setting: dose: 120.0 mg/kg/injection, schedule: Q01DX005 (ip), vehicle: saline with Tween-80.
[3] abbreviates: dose: 240.0 mg/kg/injection, schedule: Q01DX005 (ip), vehicle: saline with Tween-80.
Setting [4] is: dose: 50.0 mg/kg/injection, schedule: Q01DX005 (ip), vehicle: Klucel (hydroxypropylcellulose) (HPC).
[5] abbreviates: dose: 100.0 mg/kg/injection, schedule: Q01DX005 (ip), vehicle: Klucel (hydroxypropylcellulose) (HPC).
Where [6] appears, read: dose: 200.0 mg/kg/injection, schedule: Q01DX005 (ip), vehicle: Klucel (hydroxypropylcellulose) (HPC).
The mark [7] stands for this setting: dose: 50.0 mg/kg/injection, schedule: Q01DX005 (ip), vehicle: saline with Tween-80.
[8] abbreviates: dose: 100.0 mg/kg/injection, schedule: Q01DX005 (ip), vehicle: saline with Tween-80.
Setting [9] is: dose: 100.0 mg/kg/injection, schedule: Q01DX009 (ip), vehicle: saline with Tween-80.
The mark [10] stands for this setting: dose: 200.0 mg/kg/injection, schedule: Q01DX009 (ip), vehicle: saline with Tween-80.
The mark [11] stands for this setting: dose: 50.0 mg/kg/injection, schedule: Q01DX009 (ip), vehicle: saline with Tween-80.

For `O=C(Cc1n[nH]c(=S)nc1CC(=O)c1ccccc1)c1ccccc1`, the T/C by setting is: under setting [1], 98 % of control; under setting [2], 97 % of control; under setting [3], 105 % of control.
`CCOC(=O)N1Cc2cc3ncccc3nc2C1`: the T/C (dose: 25.0 mg/kg/injection, schedule: Q01DX005 (ip), vehicle: Klucel (hydroxypropylcellulose) (HPC)) is 111 % of control and the T/C under setting [4] is 100 % of control.
In the case of `Cc1c(O)cnc2nn(-c3ccccc3)c(=N)n12`, the T/C under setting [1] was 91 % of control, the T/C under setting [2] is 92 % of control and the T/C under setting [3] is 90 % of control.
Take `CCC(C)C1NC(=O)C(NC(=O)c2c3nc4c(C(=O)NC5C(=O)NC(C(C)CC)C(=O)N6CCCC6C(=O)N(C)CC(=O)N(C)C(C(C)C)C(=O)OC5C)ccc(C)c4oc-3c(C)c(=O)c2Cl)C(C)OC(=O)C(C(C)C)N(C)C(=O)CN(C)C(=O)C2CCCN2C1=O` (stereo not given): the T/C is, setting by setting: (dose: 0.05 mg/kg/injection, schedule: Q01DX009 (ip), vehicle: water) 92 % of control; (dose: 0.1 mg/kg/injection, schedule: Q01DX009 (ip), vehicle: water) 96 % of control; (dose: 0.2 mg/kg/injection, schedule: Q01DX009 (ip), vehicle: water) 99 % of control; (dose: 0.4 mg/kg/injection, schedule: Q01DX009 (ip), vehicle: water) 102 % of control and 111 % of control; (dose: 0.8 mg/kg/injection, schedule: Q01DX009 (ip), vehicle: water) 118 % of control; (dose: 3.2 mg/kg/injection, schedule: Q01DX009 (ip), vehicle: water) 155 % of control. In addition, under “dose: 6.4 mg/kg/injection, schedule: Q01DX009 (ip), vehicle: water”, the T/C is 174 % of control.
As to `COC(=O)C(C)NC(=O)C(C)NC(=O)c1ccc(OC)cc1` (stereo not given), the T/C (dose: 100.0 mg/kg/injection, schedule: Q04DX002 (ip), vehicle: saline with Tween-80) was 105 % of control; the T/C (dose: 200.0 mg/kg/injection, schedule: Q04DX002 (ip), vehicle: saline with Tween-80) was 99 % of control; the T/C (dose: 400.0 mg/kg/injection, schedule: Q04DX002 (ip), vehicle: saline with Tween-80) was 91 % of control.
Turning to `O=C([O-])c1ccccc1[O-].[Cu+2].c1cnc2c(c1)ccc1cccnc12`, the T/C (dose: 100.0 mg/kg/injection, schedule: Q04DX002 (ip), vehicle: Klucel (hydroxypropylcellulose) (HPC)) is 109 % of control.
As to `Cc1ccsc1C(=O)c1ccccc1`, the T/C was 99 % of control under setting [4], 94 % of control under setting [5] and 96 % of control under setting [6].
As for `CC1(C)COC(c2c(F)cccc2Cl)=N1`, the T/C under setting [7] was 100 % of control; the T/C under setting [8] was 100 % of control; the T/C (dose: 200.0 mg/kg/injection, schedule: Q01DX005 (ip), vehicle: saline with Tween-80) was 98 % of control.
Turning to `CC1CN(S(=O)(=O)c2cc(Cl)c(Oc3ccc([N+](=O)[O-])cc3Cl)c(Cl)c2)CC(C)O1` (stereo not given), the T/C is, setting by setting: (dose: 60.0 mg/kg/injection, schedule: Q01DX005 (ip), vehicle: Klucel (hydroxypropylcellulose) (HPC)) 106 % of control; (dose: 120.0 mg/kg/injection, schedule: Q01DX005 (ip), vehicle: Klucel (hydroxypropylcellulose) (HPC)) 101 % of control; (dose: 240.0 mg/kg/injection, schedule: Q01DX005 (ip), vehicle: Klucel (hydroxypropylcellulose) (HPC)) 97 % of control.
With `CSCC(CO)NC(=O)/C=C/c1c(C)[nH]c(=O)[nH]c1=O` (stereo not given), the T/C runs as follows: (dose: 50.0 mg/kg/injection, schedule: Q01DX009 (ip), vehicle: other) 86 % of control and 101 % of control; (dose: 100.0 mg/kg/injection, schedule: Q01DX009 (ip), vehicle: other) 89 % of control and 111 % of control; (dose: 200.0 mg/kg/injection, schedule: Q01DX009 (ip), vehicle: other) 94 % of control; (dose: 400.0 mg/kg/injection, schedule: Q01DX009 (ip), vehicle: other) 88 % of control.
For `Cc1cc(N(CCCl)CCCl)ccc1C=Nc1ccccc1-c1ccccc1`, the T/C is 155 % of control (dose: 400.0 mg/kg/injection, schedule: Q01DX009 (ip), vehicle: Klucel (hydroxypropylcellulose) (HPC)) and 170 % of control (dose: 600.0 mg/kg/injection, schedule: Q01DX009 (ip), vehicle: Klucel (hydroxypropylcellulose) (HPC)).
Turning to `CC(C)=CC1C(C(=O)OCc2ccc(C)cc2C)C1(C)C` (stereo not given), the T/C reads like this: under setting [9], 104 % of control; (dose: 100.0 mg/kg/injection, schedule: Q04DX003 (ip), vehicle: saline with Tween-80) 100 % of control; under setting [10], 109 % of control; (dose: 200.0 mg/kg/injection, schedule: Q04DX003 (ip), vehicle: saline with Tween-80) 100 % of control; (dose: 400.0 mg/kg/injection, schedule: Q01DX009 (ip), vehicle: saline with Tween-80) 122 % of control; (dose: 400.0 mg/kg/injection, schedule: Q04DX003 (ip), vehicle: saline with Tween-80) 100 % of control.
For the molecule `CSC(=S)NN=C(c1ccccc1)c1ccccc1`, the T/C was 102 % of control (dose: 0.78 mg/kg/injection, schedule: Q01DX009 (ip), vehicle: saline); 102 % of control (dose: 1.56 mg/kg/injection, schedule: Q01DX009 (ip), vehicle: saline); 100 % of control (dose: 3.12 mg/kg/injection, schedule: Q01DX009 (ip), vehicle: saline); 113 % of control (dose: 100.0 mg/kg/injection, schedule: Q01DX009 (ip), vehicle: saline); 96 % of control (dose: 200.0 mg/kg/injection, schedule: Q01DX009 (ip), vehicle: saline).
Take `CCOC(=O)c1ccc(NC(=O)Nc2ncc(Cl)cc2Cl)cc1`: the T/C is, setting by setting: under setting [11], 89 % of control; under setting [9], 86 % of control; under setting [10], 94 % of control.
With `O=C1OC(c2ccccc2)(c2ccccc2)CC12CC(c1ccccc1)(c1ccccc1)OC2=O`, the T/C was 91 % of control under setting [7] and 94 % of control under setting [8].
As for `O=C(O)CC(O)CCCCCO` (stereo not given), the T/C is 110 % of control under setting [11]; 110 % of control under setting [9]; 106 % of control (dose: 100.0 mg/kg/injection, schedule: Q04DX003 (ip), vehicle: saline); 100 % of control under setting [10]; 113 % of control (dose: 200.0 mg/kg/injection, schedule: Q04DX003 (ip), vehicle: saline); 100 % of control (dose: 400.0 mg/kg/injection, schedule: Q04DX003 (ip), vehicle: saline).
For `O=C(O)CC(CS(=O)CP(=O)(O)O)C(=O)O` (stereo not given), the T/C is 93 % of control (dose: 60.0 mg/kg/injection, schedule: Q01DX005 (ip), vehicle: saline); 98 % of control (dose: 120.0 mg/kg/injection, schedule: Q01DX005 (ip), vehicle: saline); 95 % of control (dose: 240.0 mg/kg/injection, schedule: Q01DX005 (ip), vehicle: saline).
Take `CCn1c2ccccc2nc2cc3c(cc21)c(Cl)c(=O)c1ccccc13`: the T/C was 108 % of control under setting [11], 104 % of control under setting [9] and 98 % of control under setting [10].
With `O=C(O)c1ccc(Cn2ccc(=O)[nH]c2=O)cc1`, the T/C by setting is: (dose: 100.0 mg/kg/injection, schedule: Q01DX001 (ip), vehicle: saline with Tween-80) 100 % of control; (dose: 200.0 mg/kg/injection, schedule: Q01DX001 (ip), vehicle: saline with Tween-80) 100 % of control; (dose: 400.0 mg/kg/injection, schedule: Q01DX001 (ip), vehicle: saline with Tween-80) 100 % of control.
Turning to `CN(C)C=Nc1cccnc1[N+](=O)[O-]`, the T/C was 108 % of control (dose: 50.0 mg/kg/injection, schedule: Q01DX009 (ip), vehicle: Klucel (hydroxypropylcellulose) (HPC)); 99 % of control (dose: 100.0 mg/kg/injection, schedule: Q01DX009 (ip), vehicle: Klucel (hydroxypropylcellulose) (HPC)); 108 % of control (dose: 200.0 mg/kg/injection, schedule: Q01DX009 (ip), vehicle: Klucel (hydroxypropylcellulose) (HPC)).
On to `Nc1nc2nc[nH]c(=O)c2[nH]1`, for which the T/C was 99 % of control (dose: 6.25 mg/kg/injection, schedule: Q01DX005 (ip), vehicle: saline with Tween-80); 99 % of control (dose: 12.5 mg/kg/injection, schedule: Q01DX005 (ip), vehicle: saline with Tween-80); 102 % of control and 106 % of control (dose: 25.0 mg/kg/injection, schedule: Q01DX005 (ip), vehicle: saline with Tween-80); 102 % of control under setting [7].
Take `Cc1cc(N/N=C/c2ccc([N+](=O)[O-])o2)c2cc3c(cc2n1)OCO3`: the T/C reads like this: under setting [4], 91 % of control; under setting [5], 98 % of control; under setting [6], 96 % of control.

The values are drawn from PubChem BioAssay AID330 (DTP/NCI, 2004).
